Data as given in patent publication US20250154212A1, “METHOD OF DISRUPTING MEMORY AND LIPOPEPTIDE FOR USE IN SUCH METHOD” (The Research Foundation for The State University of New York, priority 2023, published 2025).
Where no end group is shown, it is not given here. The star is where a group is joined. Myristoyl = CCCCCCCCCCCCCC(=O)*

Target: T1, KIBRA-PKCι/λ interaction (Homo sapiens, UniProt P41743)
T1 construct: expressed in transfected cells; host or cells: HEK293T
T1 sequence (P41743 10-596): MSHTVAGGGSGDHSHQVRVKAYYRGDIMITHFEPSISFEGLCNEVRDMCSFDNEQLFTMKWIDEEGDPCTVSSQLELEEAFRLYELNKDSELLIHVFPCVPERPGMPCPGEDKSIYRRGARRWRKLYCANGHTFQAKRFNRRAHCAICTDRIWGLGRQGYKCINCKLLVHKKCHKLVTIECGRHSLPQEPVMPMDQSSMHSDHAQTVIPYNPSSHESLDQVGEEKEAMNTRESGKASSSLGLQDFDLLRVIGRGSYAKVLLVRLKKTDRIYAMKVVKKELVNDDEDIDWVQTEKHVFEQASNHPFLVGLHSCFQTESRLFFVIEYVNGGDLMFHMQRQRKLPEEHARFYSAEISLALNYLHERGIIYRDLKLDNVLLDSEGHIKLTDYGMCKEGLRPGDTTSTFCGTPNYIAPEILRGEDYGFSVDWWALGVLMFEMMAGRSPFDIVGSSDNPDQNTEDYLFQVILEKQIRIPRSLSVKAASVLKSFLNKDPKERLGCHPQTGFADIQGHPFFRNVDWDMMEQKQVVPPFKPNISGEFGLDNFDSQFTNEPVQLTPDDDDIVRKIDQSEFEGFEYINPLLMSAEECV
Assay: BiFC assay of KIBRA-PKCι/λ interaction in HEK293T cells
Assay type: cell-based
Details: 10 μM
Description: KIBRA-PKMζ BiFC was performed as previously described (28), using pVen1-FLAG-KIBRA and pVen2-HA-PKMζ, in which PKMζ was cloned between EcoR1 and BamH1 sites. The constructs pVen1 and pVen2 encode the N-terminus (amino acids 1-154) and C-terminus (amino acids 155-238) of the Venus protein, respectively, and the Venus fragments were on the N-terminal of the fusion proteins. pVen2-HA-PKMζ[PKCι/λ-P291Q;F297S] was generated by site-directed mutagenesis using forward-cctggagAagcAAatceggatcccccggtCcctgtccgte and reverse-gacggacaggGaccgggggatccggatTTgctTctccagg primers and the QuickChange II XL Site-Directed Mutagenesis Kit (Agilent Technologies), following manufacturer's instructions. Additional pVen2-HA-PKC isoforms and pVen2-HA-CaMKIIα in the pVen2-HA vector were generated by cloning the N-terminus of the coding sequence of each kinase (table S1) to obtain an in-frame fusion at the C-terminus of the pVen2-HA. Human versions of KIBRA and kinases were used, and all PCR amplified sequences and constructs were verified by DNA sequencing.
HEK293T cells were cultured in Dulbecco's Modified Eagle's Medium supplemented with 10% heat-inactivated fetal bovine serum, 100 U/ml penicillin, […] streptomycin, 2 mM glutamine, and 10 mM HEPES in a T75 tissue culture flask with canted neck and ventilated cap. Twenty-four hours prior to transfection, 1×10^5 HEK293T cells in 1 ml of media were plated on poly-D-lysine-treated coverslips in 24-well plates. One hour prior to transfection, 0.5 ml of the media was removed from each well, and ζ-stat or K-ZAP was added to the media that had been removed. The remaining media in each well was then discarded and substituted with the 0.5 ml pre-conditioned media containing ζ-stat or K-ZAP at designated concentrations. For transfection a total of 50 ng of DNA was delivered to each well using Lipofectamine 3000 (Invitrogen) and OptiMEM 1× reduced serum medium (Invitrogen) at a plasmid-to-plasmid ratio of 1:1. The amount of transfected DNA was optimized to produce relatively low concentrations of proteins during overexpression. […]

| Compound | effect on KIBRA-PKCι/λ interaction (BiFC) (listed as C-stat) | effect on KIBRA-PKCι/λ interaction (BiFC) (listed as z-stat) | effect on KIBRA-PKCι/λ interaction (BiFC) |
| --- | --- | --- | --- |
| O=S(=O)(O)c1cc(O)c2c(S(=O)(=O)O)cc(S(=O)(=O)O)cc2c1 [ζ-stat, 1-naphthol-3,6,8-trisulphonic acid] | no measurable effect | has no effects | – |
| myr-N-FVRNSLERRSVRMKRPS-C (Myristoyl-FVRNSLERRSVRMKRPS) [K-ZAP] | – | – | not measurably affected |
